Patent US20060069132A1, “Azolecarboxamide herbicides” (priority 2004, published 2006)

Columns and labels:
Assay in all cases: Test E pre-/postemergence herbicide test
johnsongrass = assay type: in vivo, Sorghum halepense
Outline: (§1)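 Herbicidal effect scored visually, 0–100 scale, versus controls. Treatments: preemergence on planted seed; postemergence on 2–18 cm seedlings. Greenhouse, 12 to 14 days.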

Canada horseweed = assay type: in vivo, Erigeron Canadensis; details: Preemergence
Outline: as §1

common mallow = assay type: in vivo, Malva sylvestris
Outline: as §1

bipinnate beggarticks = assay type: in vivo, Bidens bipinnata; details: Preemergence
Outline: as §1

downy bromegrass = assay type: in vivo, Bromus tectorum
Outline: as §1

annual bluegrass = assay type: in vivo, Poa annua
Outline: as §1

field bindweed = assay type: in vivo, Convolvulus arvensis
Outline: as §1

prickly sida = assay type: in vivo, Sida spinosa; details: Preemergence, scale 0 (no effect) to 100 (complete control)
Outline: as §1

pitted morningglory = assay type: in vivo, Ipomoea lacunosa
Outline: as §1

common purslane = assay type: in vivo, Portulaca oleracea; details: Preemergence
Outline: as §1

common groundsel = assay type: in vivo, Senecio vulgaris
Outline: as §1

purple nutsedge = assay type: in vivo, Cyperus rotundus; details: Preemergence, scale 0 (no effect) to 100 (complete control)
Outline: as §1

hairy beggarticks = assay type: in vivo, Bidens radiata; details: Preemergence
Description: Seeds of plant species selected from bipinnate beggarticks (Bidens bipinnata L.), hairy beggarticks (Bidens radiata Thuill.), bermudagrass (Cynodon dactylon (L.) Pers.), Surinam grass (Urochloa decumbens (Staph) R. D. Webster, previously named Brachiaria decumbens Stapf), large crabgrass (Digitaria sanguinalis (L.) Scop.), green foxtail (Setaria viridis (L.) P. Beauv.), goosegrass (Eleusine indica (L.) Gaertn.), johnsongrass (Sorghum halepense (L.) Pers.), kochia (Kochia scoparia (L.) Schrad.), pitted morningglory (Ipomoea lacunosa L.), purple nutsedge (Cyperus rotundus L.), common ragweed (Ambrosia elatior L.), mustard (Brassica nigra (L.) W. D. J. Koch), guineagrass (Panicum maximum Jacq.), dallisgrass (Paspalum dilatatum Poir.), barnyardgrass (Echinochloa crus-galli (L). P. Beauv.), southern sandbur (Cenchrus echinatus L.), common sowthistle (Sonchus oleraceous L.), prickly sida (Sida spinosa L.), Italian ryegrass (Lolium multiflorum Lam.), common purslane (Portulaca oleracea L.), broadleaf signalgrass (Brachiaria platyphylla (Griseb.) Nash), common groundsel (Senecio vulgaris L.), common chickweed (Stellaria media (L.) Vill/Cyr.), tropical spiderwort (Commelina benghalensis L.), annual bluegrass (Poa annua L.), downy bromegrass (Bromus tectorum L.), itchgrass (Rottboellia cochinchinensis (L.) L.f.), quackgrass (Elytrigia repens (L.) Nevski), Canada horseweed (Erigeron Canadensis L.), field bindweed (Convolvulus arvensis L.), spotted spurge (Euphorbia maculata L.), common mallow (Malva sylvestris (=s silvestris) L.), and Russian thistle (Salsola kali L. ssp. Ruthenica (Iljin) Soo) were planted and treated preemergence with test chemicals formulated in a non-phytotoxic solvent mixture which included a surfactant.
At the same time, plants selected from these weed species were treated with postemergence applications of some of the test chemicals formulated in the same manner. Plants ranged in height from 2 to 18 cm (1- to 4-leaf stage) for postemergence treatments. Treated plants and controls were maintained in a greenhouse for 12 to 14 days, after which time all species were compared to controls and visually evaluated. Plant response ratings, summarized in Table E, are based on a scale of 0 to 100 where 0 is no effect and 100 is complete control. A dash (-) response means no test result.

[1] = Preemergence, 62 g ai/ha, scale 0 to 100
[2] = Preemergence, 125 g ai/ha, scale 0 to 100
[3] = Preemergence, 250 g ai/ha, scale 0 (no effect) to 100 (complete control)
[4] = Preemergence, 500 g ai/ha, scale 0 (no effect) to 100 (complete control)
[5] = 250 g ai/ha, scale 0 (no effect) to 100 (complete control)
[6] = 500 g ai/ha, scale 0 (no effect) to 100 (complete control)
[7] = Postemergence, 250 g ai/ha, scale 0 to 100
[8] = Preemergence, 125 g ai/ha, scale 0 (no effect) to 100 (complete control)
[9] = postemergence, 125 g ai/ha, scale 0 to 100
[10] = postemergence, 62 g ai/ha, scale 0 to 100
[11] = 125 g ai/ha, scale 0 (no effect) to 100 (complete control)
[12] = Preemergence, 375 g ai/ha, scale 0 (no effect) to 100 (complete control)

In the case of CCNC(=O)c1cccc(NC(=O)c2nn(C(C)(C)C)nc2C)c1 [Compound 392], the “Plant response rating, Johnsongrass” value (johnsongrass; [1]) is reported as 10, the “Plant response rating, Johnsongrass” value (johnsongrass; [2]) is reported as 30 and the “Plant response rating, Johnsongrass” value (johnsongrass; [3]) is reported as 90. The “Plant response rating, Johnsongrass” value (johnsongrass; [4]) was 95, the “Plant response rating, Horseweed” value (Canada horseweed; 62 g ai/ha, scale 0 to 100) was 60 and the “Plant response rating, Horseweed” value (Canada horseweed; 125 g ai/ha, scale 0 to 100) was 60. For the same compound, the “Plant response rating, Horseweed” value (Canada horseweed; [5]) was 75, the “Plant response rating, Horseweed” value (Canada horseweed; [6]) was 85 and the “Plant response rating, Mallow” value (common mallow; [1]) was 10. For the same compound, the “Plant response rating, Mallow” value (common mallow; [2]) was 80, the “Plant response rating, Mallow” value (common mallow; [3]) was 95 and the “Plant response rating, Mallow” value (common mallow; [4]) was 95. For the same compound, the “Plant response rating, Beggarticks, Bip.” value (bipinnate beggarticks; 125 g ai/ha, scale 0 to 100) was 10, the “Plant response rating, Beggarticks, Bip.” value (bipinnate beggarticks; [5]) was 80 and the “Plant response rating, Beggarticks, Bip.” value (bipinnate beggarticks; [6]) was 100. The “Plant response rating, Bromegrass, Downy” value (downy bromegrass; [1]) was 10, the “Plant response rating, Bromegrass, Downy” value (downy bromegrass; [2]) was 20 and the “Plant response rating, Bromegrass, Downy” value (downy bromegrass; [3]) was 30. The “Plant response rating, Bromegrass, Downy” value (downy bromegrass; [4]) was 30, the “Plant response rating, Bluegrass” value (annual bluegrass; [1]) was 10 and the “Plant response rating, Bluegrass” value (annual bluegrass; [2]) was 80. For the same compound, the “Plant response rating, Bluegrass” value (annual bluegrass; [3]) was 80, the “Plant response rating, Bluegrass” value (annual bluegrass; [4]) was 100 and the “Plant response rating, Bindweed, Field” value (field bindweed; [1]) was 30. For the same compound, the “Plant response rating, Bindweed, Field” value (field bindweed; [2]) was 30, the “Plant response rating, Bindweed, Field” value (field bindweed; [3]) was 100 and the “Plant response rating, Bindweed, Field” value (field bindweed; [4]) was 100. The “Plant response rating, Prickly Sida” value (prickly sida; 250 g ai/ha) was 75, the “Plant response rating, Prickly Sida” value (prickly sida; 500 g ai/ha) was 100 and the “Plant response rating, Morningglory” value (pitted morningglory; [1]) was 10. The “Plant response rating, Morningglory” value (pitted morningglory; [2]) was 40, the “Plant response rating, Morningglory” value (pitted morningglory; [3]) was 40 and the “Plant response rating, Morningglory” value (pitted morningglory; [4]) was 75. The “Plant response rating, Purslane” value (common purslane; 125 g ai/ha, scale 0 to 100) was 90, the “Plant response rating, Purslane” value (common purslane; [5]) was 100 and the “Plant response rating, Purslane” value (common purslane; [6]) was 100. The “Plant response rating, Groundsel” value (common groundsel; [1]) was 10, the “Plant response rating, Groundsel” value (common groundsel; [2]) was 60 and the “Plant response rating, Groundsel” value (common groundsel; [3]) was 60. The “Plant response rating, Groundsel” value (common groundsel; [4]) was 95.
CCNC(=O)c1ccc(F)c(NC(=O)c2cc(C(C)(C)C)nn2CC)c1 [Compound 2, 3-(1,1-dimethylethyl)-1-ethyl-N-[5-[(ethylamino)carbonyl]-2-fluorophenyl]-1H-pyrazole-5-carboxamide] was tested, and the “Plant response rating, Johnsongrass” value (johnsongrass; [7]) was 100, the “Plant response rating, Johnsongrass” value (johnsongrass; [1]) was 90 and the “Plant response rating, Johnsongrass” value (johnsongrass; [8]) was 90. The “Plant response rating, Johnsongrass” value (johnsongrass; [3]) was 100, the “Plant response rating, Johnsongrass” value (johnsongrass; [4]) was 100 and the “Plant response rating, Johnsongrass” value (johnsongrass; [9]) was 90. The “Plant response rating, Johnsongrass” value (johnsongrass; [10]) was 80, the “Plant response rating, Horseweed” value (Canada horseweed; 62 g ai/ha, scale 0 to 100) was 80 and the “Plant response rating, Horseweed” value (Canada horseweed; [11]) was 100. The “Plant response rating, Horseweed” value (Canada horseweed; [5]) was 100, the “Plant response rating, Horseweed” value (Canada horseweed; [6]) was 100 and the “Plant response rating, Mallow” value (common mallow; [7]) was 80. The “Plant response rating, Mallow” value (common mallow; [1]) was 30, the “Plant response rating, Mallow” value (common mallow; [3]) was 50 and the “Plant response rating, Mallow” value (common mallow; [4]) was 80. For the same compound, the “Plant response rating, Mallow” value (common mallow; [9]) was 75, the “Plant response rating, Mallow” value (common mallow; [10]) was 50 and the “Plant response rating, Bromegrass, Downy” value (downy bromegrass; [7]) was 98. The “Plant response rating, Bromegrass, Downy” value (downy bromegrass; [1]) was 50, the “Plant response rating, Bromegrass, Downy” value (downy bromegrass; [8]) was 90 and the “Plant response rating, Bromegrass, Downy” value (downy bromegrass; [3]) was 90. The “Plant response rating, Bromegrass, Downy” value (downy bromegrass; [4]) was 90, the “Plant response rating, Bromegrass, Downy” value (downy bromegrass; [9]) was 75 and the “Plant response rating, Bromegrass, Downy” value (downy bromegrass; [10]) was 65. For the same compound, the “Plant response rating, Bluegrass” value (annual bluegrass; [7]) was 100, the “Plant response rating, Bluegrass” value (annual bluegrass; [1]) was 95 and the “Plant response rating, Bluegrass” value (annual bluegrass; [8]) was 100. For the same compound, the “Plant response rating, Bluegrass” value (annual bluegrass; [3]) was 100, the “Plant response rating, Bluegrass” value (annual bluegrass; [4]) was 100 and the “Plant response rating, Bluegrass” value (annual bluegrass; [9]) was 98. The “Plant response rating, Bluegrass” value (annual bluegrass; [10]) was 90, the “Plant response rating, Bindweed, Field” value (field bindweed; [7]) was 70 and the “Plant response rating, Bindweed, Field” value (field bindweed; [1]) was 10. The “Plant response rating, Bindweed, Field” value (field bindweed; [3]) was 70, the “Plant response rating, Bindweed, Field” value (field bindweed; [4]) was 80 and the “Plant response rating, Bindweed, Field” value (field bindweed; [9]) was 70. For the same compound, the “Plant response rating, Bindweed, Field” value (field bindweed; [10]) was 50, the “Plant response rating, Morningglory” value (pitted morningglory; [7]) was 90 and the “Plant response rating, Morningglory” value (pitted morningglory; [1]) was 30. The “Plant response rating, Morningglory” value (pitted morningglory; [8]) was 50, the “Plant response rating, Morningglory” value (pitted morningglory; [3]) was 60 and the “Plant response rating, Morningglory” value (pitted morningglory; [4]) was 80. The “Plant response rating, Morningglory” value (pitted morningglory; [9]) was 60, the “Plant response rating, Nutsedge, Purple” value (purple nutsedge; 500 g ai/ha) was 95 and the “Plant response rating, Purslane” value (common purslane; [11]) was 100. For the same compound, the “Plant response rating, Purslane” value (common purslane; [5]) was 100, the “Plant response rating, Purslane” value (common purslane; [6]) was 100 and the “Plant response rating, Groundsel” value (common groundsel; [7]) was 80. For the same compound, the “Plant response rating, Groundsel” value (common groundsel; [1]) was 60, the “Plant response rating, Groundsel” value (common groundsel; [8]) was 70 and the “Plant response rating, Groundsel” value (common groundsel; [3]) was 100. For the same compound, the “Plant response rating, Groundsel” value (common groundsel; [4]) was 100.
In the case of CCc1nn(C(C)(C)C)cc1C(=O)Nc1cc(C(=O)N(C)C)ccn1 [Compound 293], the “Plant response rating, Johnsongrass” value (johnsongrass; [2]) is reported as 10, the “Plant response rating, Johnsongrass” value (johnsongrass; [3]) is reported as 60 and the “Plant response rating, Johnsongrass” value (johnsongrass; [12]) is reported as 70. For the same compound, the “Plant response rating, Johnsongrass” value (johnsongrass; [4]) was 85, the “Plant response rating, Beggarticks, Hairy” value (hairy beggarticks; 125 g ai/ha, scale 0 to 100) was 100 and the “Plant response rating, Beggarticks, Hairy” value (hairy beggarticks; [5]) was 100. The “Plant response rating, Beggarticks, Hairy” value (hairy beggarticks; 375 g ai/ha, scale 0 (no effect) to 100 (complete control)) was 100, the “Plant response rating, Beggarticks, Hairy” value (hairy beggarticks; [6]) was 100 and the “Plant response rating, Mallow” value (common mallow; [2]) was 40. For the same compound, the “Plant response rating, Mallow” value (common mallow; [3]) was 50, the “Plant response rating, Mallow” value (common mallow; [12]) was 80 and the “Plant response rating, Mallow” value (common mallow; [4]) was 85. The “Plant response rating, Bromegrass, Downy” value (downy bromegrass; [3]) was 80, the “Plant response rating, Bromegrass, Downy” value (downy bromegrass; [4]) was 80 and the “Plant response rating, Bluegrass” value (annual bluegrass; [2]) was 95. The “Plant response rating, Bluegrass” value (annual bluegrass; [3]) was 95, the “Plant response rating, Bluegrass” value (annual bluegrass; [12]) was 95 and the “Plant response rating, Bluegrass” value (annual bluegrass; [4]) was 100. The “Plant response rating, Bindweed, Field” value (field bindweed; [2]) was 40, the “Plant response rating, Bindweed, Field” value (field bindweed; [3]) was 60 and the “Plant response rating, Bindweed, Field” value (field bindweed; [12]) was 95. For the same compound, the “Plant response rating, Bindweed, Field” value (field bindweed; [4]) was 95, the “Plant response rating, Prickly Sida” value (prickly sida; 250 g ai/ha) was 80 and the “Plant response rating, Prickly Sida” value (prickly sida; 375 g ai/ha) was 100. For the same compound, the “Plant response rating, Prickly Sida” value (prickly sida; 500 g ai/ha) was 100, the “Plant response rating, Morningglory” value (pitted morningglory; [2]) was 10 and the “Plant response rating, Morningglory” value (pitted morningglory; [3]) was 40. The “Plant response rating, Morningglory” value (pitted morningglory; [12]) was 50, the “Plant response rating, Morningglory” value (pitted morningglory; [4]) was 90 and the “Plant response rating, Nutsedge, Purple” value (purple nutsedge; 250 g ai/ha) was 40. The “Plant response rating, Nutsedge, Purple” value (purple nutsedge; 375 g ai/ha) was 50 and the “Plant response rating, Nutsedge, Purple” value (purple nutsedge; 500 g ai/ha) was 60.
